Measured values published in BigSolDB 2.1.

CC[C@H](C)C(=O)O[C@H]1C[C@@H](C)C=C2C=C[C@H](C)[C@H](CC[C@@H]3C[C@@H](O)CC(=O)O3)[C@H]21
solubility (mole fraction)
Details | in 2-butanone | in acetone | in ethyl acetate | in isobutyl acetate | in isopropyl acetate | in methyl acetate | in n-butyl acetate | in n-propyl acetate | in sec-butyl acetate | in tert-butyl acetate
285.1 K | 0.00752 | 0.00831 | 0.00417 | 0.00345 | 0.00335 | 0.00309 | 0.00407 | 0.00395 | 0.00365 | 0.00275
288.3 K | 0.00878 | 0.00936 | 0.0047 | 0.00383 | 0.00372 | 0.0034 | 0.00452 | 0.00438 | 0.00401 | 0.00314
291.2 K | 0.00918 | 0.0104 | 0.00517 | 0.00422 | 0.00412 | 0.00376 | 0.00494 | 0.00481 | 0.00446 | 0.00346
294.6 K | 0.0111 | 0.0118 | 0.00586 | 0.0047 | 0.00459 | 0.00417 | 0.00557 | 0.00544 | 0.005 | 0.00386
297.2 K | 0.0115 | 0.013 | 0.00656 | 0.00504 | 0.00497 | 0.00447 | 0.00611 | 0.00587 | 0.00545 | 0.0042
300.3 K | 0.0132 | 0.0146 | 0.00706 | 0.0057 | 0.00553 | 0.00515 | 0.00679 | 0.00658 | 0.00606 | 0.00479
303.1 K | 0.0147 | 0.0163 | 0.00778 | 0.00627 | 0.00606 | 0.00543 | 0.00748 | 0.00724 | 0.00666 | 0.0051
306.3 K | 0.0175 | 0.0183 | 0.0087 | 0.00702 | 0.00677 | 0.00619 | 0.00836 | 0.00803 | 0.00745 | 0.00569
309.4 K | 0.0197 | 0.0206 | 0.00967 | 0.00777 | 0.00756 | 0.00674 | 0.00931 | 0.00901 | 0.0083 | 0.00638
312.2 K | 0.0219 | 0.0228 | 0.0108 | 0.00864 | 0.00832 | 0.00746 | 0.0103 | 0.00997 | 0.00915 | 0.00693
